What was measured:
[1] = target: T1, MMP-3 (Homo sapiens, UniProt P08254); test: Inhibition of MMP-3 (fluorogenic peptide cleavage); format: biochemical; settings: in vitro, catalytic domain MMP-3
T1 construct: Catalytic domains MMP-2, MMP-3 and MMP-9 were prepared in Pfizer Central Research laboratories; made in house
Procedure: (§1) The biological activities of the compounds of the present invention were determined by the following test methods, which are based on the ability of the compounds to inhibit the cleavage of various fluorogenic peptides by MMPs 1, 2, 3, 9, 13 and 14.
(§2) The assays for MMPs 2, 3, 9 and 14 are based upon the original protocol described in FEBS, 1992, 296, 263, with the minor modifications described below.
(§3) Inhibition of MMP-2, MMP-3 and MMP-9
(§4) Catalytic domains MMP-2, MMP-3 and MMP-9 were prepared in Pfizer Central Research laboratories. A stock solution of MMP-2, MMP-3 or MMP-9 (1 μM) was activated by the addition of APMA. For MMP-2 and MMP-9, a final concentration of 1 mM APMA was added, followed by incubation for 1 hour at 37° C. MMP-3 was activated by the addition of 2 mM APMA, followed by incubation for 3 hours at 37° C. The enzymes were then diluted in Tris-HCl assay buffer (100 mM Tris, 100 mM NaCl, 10 mM CaCl2 and 0.16% Brij 35, pH 7.5) to a concentration of 10 nM. The final concentration of enzyme used in the assays was 1 nM.
(§5) The fluorogenic substrate used in this screen was Mca-Arg-Pro-Lys-Pro-Tyr-Ala-Nva-Trp-Met-Lys(Dnp)-NH2 (Bachem Ltd., Essex, UK) as originally described in J.Biol.Chem., 1994, 269, 20952. This substrate was selected because it has a balanced hydrolysis rate against MMPs 2, 3 and 9 (kcat/km of 54,000, 59,400 and 55,300 s^−1 M^−1 respectively). The final substrate concentration used in the assay was 5 μM.
(§6) Determination of Enzyme Inhibition
(§7) The test compound was dissolved in dimethyl sulphoxide and diluted with assay buffer so that no more than 1% dimethyl sulphoxide was present. Test compound and enzyme were added to each well of a 96 well plate and allowed to equilibrate for 15 minutes at 37° C. in an orbital shaker prior to the addition of substrate. Plates were then incubated for 1 hour at 37° C., prior to determination of fluorescence using a fluorimeter (Fluostar; BMG Lab Technologies, Aylesbury, UK) at an excitation wavelength of 328 nm and emission wavelength of 393 nm. The potency of inhibition was measured from the amount of substrate cleavage obtained using a range of test compound concentrations and, from the resulting dose-response curve, an IC50 value (the concentration of inhibitor required to inhibit 50% of the enzyme activity) was calculated.

[2] = target: T2, MMP-2 (Homo sapiens, UniProt P08253); test: Inhibition of MMP-2 (fluorogenic peptide cleavage); format: biochemical; settings: in vitro, catalytic domain MMP-2
T2 construct: Catalytic domains MMP-2, MMP-3 and MMP-9 were prepared in Pfizer Central Research laboratories
Procedure: as §1, §2, §3, §4, §5, §6, §7

[3] = test system: human ovarian carcinoma xenografts; settings: mice carrying human ovarian carcinoma xenografts; Cancer Res., 1993, 53, 2087; cited from earlier work
[4] = target: T3, Human recombinant MMP-13 (Homo sapiens, UniProt P45452); test: Inhibition of MMP-13 (fluorogenic peptide cleavage); format: biochemical; settings: in vitro
T3 construct: purchased PanVera Corporation (Madison, Wis.)
Procedure: as §1
Human recombinant MMP-13 was prepared by PanVera Corporation (Madison, Wis.) and characterised at Pfizer Central Research laboratories. A 1.9 mg/ml stock solution was activated with 2 mM APMA for 2 hours at 37° C. MMP-13 was then diluted in assay buffer (50 mM Tris, 200 mM NaCl, 5 mM CaCl2, 20 μM ZnCl2 and 0.02% Brij 35, pH 7.5) to a concentration of 5.3 nM. The final concentration of enzyme used in the assay was 1.3 nM.
The fluorogenic substrate used in this screen was Dnp-Pro-Cha-Gly-Cys(Me)-His-Ala-Lys(NMA)-NH2. The final substrate concentration used in the assay was10 μM.
as §6
The test compound was dissolved in dimethyl sulphoxide and diluted with assay buffer so that no more than 1% dimethyl sulphoxide was present. Test compound and enzyme were added to each well of a 96 well plate. The addition of substrate to each well initiated the reaction. Fluorescence intensity was determined using a 96 well plate fluorimeter (Cytofluor II; PerSeptive Biosystems, Inc., Framingham, Mass.) at an excitation wavelength of 360 nm and emission wavelength of 460 nm. […]

T2 sequence (P08253 with tags, fused parts or gaps DEL222-396 limits assumed): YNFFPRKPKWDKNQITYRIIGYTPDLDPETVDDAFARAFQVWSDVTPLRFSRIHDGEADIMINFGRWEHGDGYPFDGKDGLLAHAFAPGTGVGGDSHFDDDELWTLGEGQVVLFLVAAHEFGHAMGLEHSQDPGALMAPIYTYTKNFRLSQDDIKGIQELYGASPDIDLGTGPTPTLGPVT
T1 sequence (P08254 100-272 limits assumed): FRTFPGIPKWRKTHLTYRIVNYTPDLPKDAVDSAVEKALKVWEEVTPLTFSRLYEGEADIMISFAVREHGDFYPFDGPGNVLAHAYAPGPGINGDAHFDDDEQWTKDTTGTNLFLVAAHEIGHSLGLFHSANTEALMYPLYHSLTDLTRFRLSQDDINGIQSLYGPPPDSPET

IC50 [1] [nM]	IC50 [2] [nM]	melting point [°C]	IC50 [4] [nM]	Compound	survival [3]	tumour burden [3]
20	173			C=CCC(C)(C(=O)NO)S(=O)(=O)N1CC=C(c2ccc(-c3ccccc3)c(C)c2)CC1 (racemic) [Example 15, N-Hydroxy-2(R,S)-methyl-2-[4-(3-methyl-4-phenylphenyl)-1,2,3,6-tetrahydropyridin-1-ylsulphonyl]pent-4-enamide]		
16	315	190 to 191	28	Cc1cc(C2=CCN(S(=O)(=O)CC(=O)NO)CC2)ccc1-c1ccccc1 [Example 2, N-Hydroxy-2-[4-(3-methyl-4-phenylphenyl)-1,2,3,6-tetrahydropyridin-1-ylsulphonyl]acetamide]		
18	525	158 to 160		Cc1cc(C2=CCN(S(=O)(=O)C(C)(C)C(=O)NO)CC2)ccc1-c1cnc2ccccc2c1 [Example 40, N-Hydroxy-2-methyl-2-{4-[3-methyl-4-(quinolin-3-yl)phenyl]-1,2,3,6-tetrahydropyridin-1-ylsulphonyl}propanamide]		

More lines, now with the values behind:

Compound	IC50 [1] [nM]	IC50 [2] [nM]	melting point [°C]	IC50 [4] [nM]	survival [3]	tumour burden [3]
CNC(=O)[C@H](Cc1ccccc1)NC(=O)[C@H](CC(C)C)[C@H](CSc1cccs1)C(=O)NO [BB-94]					prolong the survival	decrease the tumour burden
O=C(CS(=O)(=O)N1CCC(c2ccc(-c3ccccc3)cc2)CC1)NO [Example 3, N-Hydroxy-2-[4-(4-phenylphenyl)piperidin-1-ylsulphonyl]acetamide]	26	38	200 to 201	25		
CCOc1cccc(-c2ccc(C3=CCN(S(=O)(=O)C4(C(=O)NO)CCOCC4)CC3)cc2C)c1 [Example 28, N-Hydroxy-4-{4-[4-(3-ethoxyphenyl)-3-methylphenyl]-1,2,3,6-tetrahydropyridin-1-ylsulphonyl}tetrahydropyran-4-carboxymide]	24	432	152 to 154			
COc1cccc(-c2ccc(C3CCN(S(=O)(=O)C4(C(=O)NO)Cc5ccccc5C4)CC3)cc2C)c1 [Example 50, N-Hydroxy-2-{4-[4-(3-methoxyphenyl)-3-methylphenyl]piperidin-1-ylsulphonyl}indane-2-carboxymide]	23	1910	199 to 202			
Cc1cc(C2=CCN(S(=O)(=O)CC(=O)NO)CC2)ccc1-c1ccc2c(c1)OCO2 [Example 56, N-Hydroxy-2-{4-[4-(1,3-benzodioxol-5-yl)-3-methylphenyl]-1,2,3,6-tetrahydropyridin-1-ylsulphonyl}acetamide]	15	387	165 to 167			

— patent US6495568B1, “Hydroxamic acid derivatives as matrix metalloprotease (MMP) inhibitors” (Warner-Lambert Company, priority 1997, dated 2002)
